The source of these data is US12173039B1, “TPL2 inhibiting agents, uses thereof, and detection of TPL2” (Washington University, priority 2021, dated 2024).

One assay has as its system NF-κB reporter activity. Kind of assay: NF-κB luciferase reporter assay. The format is cell-based, human. The conditions noted are these: KRAS-mutant PDAC cells (PANC-1); serial dilutions from 20 μM; 18 hours. The method, then:
(§1) Cells stably expressing plasmid encoding serum-response-element (SRE) or NFKB promoter driven Firefly luciferase and constitutive Renilla luciferase were seeded at equal density per well and treatment was initiated the next day for 16-24 duration. Alternatively, 293T reporter cells were transfected in duplicate or triplicate with 1 μg of appropriate plasmid DNA. Medium was replaced 16-18 hours later and at 48 hours post-transfection reporter activity was measured using Dual-Glo® Luciferase Assay System. Data was acquired using SpectraMax i3Microplate Reader and analysis was performed by calculating ratio of firefly:renilla. Values were normalized to control and graphed using GraphPad Prism v7/8 software.
Background: Reporter assays use an easily measured gene product as a stand-in for the process of interest.

In another assay the test system is HEK T/tH-KRAS^G12V cells. Put plainly: Drug response and viability assay, HEK T/tH-KRAS^G12V with or without MEK1-5DD. The format is cell-based, human. The conditions noted are these: 96 hours, GI50. The method, then:
Cells were seeded at 1500-2500 cells per well in triplicates, in 96 well format. Next day, appropriate inhibitor was added in serial dilution from 1.00×102 μM or indicated single doses. Vehicle (DMSO) was added to match volume of inhibitor used for highest concentration. After 96-120 hours, 5× AlamarBlue® reagent (resazurin sodium salt, Sigma) was added to wells and incubated for 2-4 hours. Fluorescence at 585 nm (excitation 555 nm) was measured by SpectraMax i3 Microplate Reader. Raw values were normalized to vehicle, analyzed and graphed using GraphPad Prism v7/8 software.

The subject of a further assay is p-p105, p-p65. Put plainly: Immunoblots of NF-κB markers in PDAC cells. The format is cell-based, human. The conditions noted are these: Pa01C, Pa02C, Pa03C, and HPAC cells; IRAK4 inhibition. The method, then: (§2) Standard immunoblotting procedure was followed. Cells were washed twice with ice-cold 1×PBS and lysed with ice-cold triton-X lysis buffer (25 mM Tris, pH 7.4, 150 mM NaCl, 5 mM EDTA, 1% Triton-X) containing 1× protease (10 μg mL-1 leupeptin, 700 ng mL-1 pepstatin, 170 ng mL-1 aprotinin, 1 mM PMSF) and phosphatase (10 mM NaF, 1 mM Na3VO4, 1 mM Na4P2O^7, 5 mM Na b-glycerophosphate) inhibitors. Lysates were quantified by Bradford assay (Thermo Scientific), normalized for concentration, and reduced and denatured with 6×SDS sample buffer followed by boiling for 5 minutes. 20-40 μg of protein per sample was resolved by SDS-PAGE, blotted on PVDF membrane and probed with primary antibodies (Cell Signaling Technologies: p-ERK1/2 (#4370), p-MEK1/2 (#9154), ERK1/2 (#4695), MEK1/2 (#8727), p-p105 (#4806), NFS2KB1 p105/p50 (#3035), p-IRAK4 (#11927), IRAK4 (#4363), ubiquitin (#43124), anti-HA (#3724), p-p90RSK (#11989), RSK1/2/3 (#9355), p-TPL2 (#4491), PARP (#9532), p-B-RAF S445 (#2696), BRAF (#9433S). Santa Cruz Biotechnology: GAPDH (#sc-32233), p-p65 S536 (#sc101752). Thermo Fisher Scientific: p-55 TPL2 (#PA5-36635). EMD Millipore: IRAK4 (#07-418). R&D systems: TPL2/MAP3K8 (#MAB4586). Novus Biologicals: anti-AU1 (#NB600-453). Abcam: p-p65 S276 (#ab194726)). Membranes were incubated with appropriate HRP-conjugated secondary antibodies (anti-mouse or anti-rabbit, (1:5000 dilution), Jackson Laboratory) and imaged using chemiluminescent substrate. Additional steps for immunoprecipitation include incubation of soluble fraction lysate with anti-HA magnetic beads (Thermo Scientific cat #88837) overnight at 4° C., washing, and elution using 1×SDS sample buffer and boiling as mentioned in manufacturer's protocol.

The test system of a further assay is p-TPL2. Put plainly: Immunoblot of activated ectopic TPL2 (anti-p-TPL2 antibody). The format is cell-based, human. The following applies: Pa01C and HPAC cells overexpressing TPL2. Here is the method:
as §2, with “S536” left out, “S276” left out, “Membranes were incubated with appropriate HRP-conjugated secondary antibodies (anti-mouse or anti-rabbit, (1:5000 dilution), Jackson Laboratory) and imaged using chemiluminescent substrate. Additional steps for immunoprecipitation include incubation of soluble fraction lysate with anti-HA magnetic beads (Thermo Scientific cat #88837) overnight at 4° C., washing, and elution using 1×SDS sample buffer and boiling as mentioned in manufacturer's protocol.” left out

Another assay has as its system KP2 cells. Put plainly: Anchorage independent soft agar growth assay, KP2 cells. The format is cell-based, murine. Here is the method:
Cells were seeded at 5000-15000 cells in 0.3% noble agar-DMEM suspension per well, in triplicate, in 24 well plate. For drug treatment, compound was added to cell suspension at 1× concentration. Seeded cells were fed with fresh 0.6% agar-DMEM mix once every 7-12 days. […] After 3-6 weeks, colonies were counted under microscope and imaged. Colony count was normalized to control and graphed in GraphPad Prism v7/8.

Assay [1] has as its system serum-response element (SRE). Put plainly: Serum-response element (SRE) luciferase reporter assay. The format is cell-based, human. The conditions noted are these: HPAC cells. The method, then: as §1

Take `CC[C@@H]1[C@H](F)C(=O)N[C@@H]1COc1nccc2cc(C(N)=O)c(OC)cc12` [PF06650833, 1-(((2S,3S,4S)-3-ethyl-4-fluoro-5-oxopyrrolidin-2-yl)methoxy)-7-methoxyisoquinoline-6-carboxamide]: in the assay on NF-κB reporter activity, the NF-κB reporter activity entry is “dose-dependently suppressed”. Moreover, the “loss of sensitivity to growth inhibition on expression of MEK1-5DD” value with HEK T/tH-KRAS^G12V cells is recorded as “approximately 3 fold”. Besides, the p-p105 levels entry with p-p105, p-p65 was “suppresses”. Moreover, the “activated state of ectopically expressed TPL2 (p-TPL2)” value in the assay with p-TPL2 was “dose-dependently deactivated”. Also, the “AI growth in soft agar” value with KP2 cells is on record as “dose-dependently suppressed”. The “SRE-driven luciferase reporter activity” value in assay [1] is reported as “dose-dependently reduced”.
